Data as given in patent publication US20080187572A1, “Matrix Metalloproteinase Inhibitors of Tgfb-Induced Subcapsular Cataract Formation” (McMaster University, priority 2005, published 2008).
Entries after “also recorded” stand apart in the source; their conditions may differ.

B1: TGFβ: TGFβ2 (R&D Systems), growth factor used to induce subcapsular cataract in cultured rat lenses (protein, UniProt P61812 303-414, looked up)
Transforming growth factor …: ALDAAYCFRNVQDNCCLRPLYIDFKRDLGWKWIHEPKGYNANFCAGACPYLWSSDTQHSRVLSLYNTINPEASASPCCVSQDLEPLTILYYIGKTPKIEQLSNMIVKSCKCS

What was measured:
[1] = system: alpha smooth muscle actin (α-SMA); experiment: Immunofluorescent localization of αSMA in lens cross-sections; format: cell-based, rat; details: co-cultured with TGFβ 2 ng/ml, 6 days
Procedure: Lenses were collected from different treatment groups and fixed overnight in 1:99 acetic acid: ethanol solution, dehydrated, embedded in paraffin, and processed for routine histology. For histological analysis, 5 μm sections were stained with hematoxylin and eosin. Immunofluorescence was performed on 5 μm thick paraffin-embedded sections. Sections were incubated with primary antibody specific for alpha smooth muscle actin (α-SMA, 1:100, Sigma) and bound primary antibodies were visualized with a fluorescein-isothiocyanate (FITC) anti-mouse secondary antibody, (1:50, Jackson ImmunoResearch Laboratories). All sections were mounted in Vectasheild mounting medium with 4′,6-Diaminodino-2-Phenylindol (DAPI, Vector Laboratories) to visualize the nuclei.
To carry out these experiments, excised rat lenses were treated with exogenous TGFβ for a period of 6 days. An untreated control lens (A), a lens treated with TGF-β (2 ng/mL) (B), a lens co-cultured with TGFβ (2 ng/mL) and GM6001 (25 μM) (C) and a lens co-cultured with TGF-β and MMPI-2/9 (2 umol/L) (D) are shown following 6 days of culture.

E-cadherin mRNA = E-cadherin mRNA in lens epithelium by LCM and RT-QPCR; format: cell-based, rat; details: 6 day treatment; for E-cadherin mRNA level in lens epithelium versus TGFβ alone, FIG. 6B / E-cadherin mRNA level in lens epithelium versus controls, FIG. 6B: co-treated with TGFβ
Procedure: E-cadherin mRNA expression in the rat lens epithelial region was determined for lenses from different treatment groups, TGF-β, TGF-β plus GM6001 (25 μM), TGF-β plus MMPI-2/9 or control (6 day treatment time), using Real time quantitative PCR, (RT-QPCR). For these experiments, cryostat sections of lenses were subjected to Laser Capture Microdissection (LCM) in order to specifically isolate the cells. LCM was used to further ensure that cells of the subcapsular plaques were obtained and not left adherent to the underlying fiber cell mass, which may have occurred with manual dissection. Following treatment, lenses were placed in a cryostat mould containing Tissue-Tek OCT (Sakura Finetek Torrance, Calif.), and frozen on dry ice then stored at −70° C. The frozen tissue was then sectioned at 5-8 μm in a cryostat, mounted on non-coated clean glass slides, and stored again at −70° C. Immediately before Laser Capture Microdissection (LCM), the frozen sections were thawed for 10 seconds and then stained with HistoGene™LCM Frozen Section Staining kit (Arcturus, Mountain View, Calif.) using the protocol provided with strict adherence to RNAse-free conditions. The slides were then dried for 5 minutes after which LCM of the tissue was completed within two hours. LCM was then performed using the PixCell II (Arcturus), as described by others. The HistoGene stain allowed for the identification of the general morphology of the epithelium. Cells from the epithelium of the lens were then captured on CapSure Macro LCM Caps (Arcturus) using the PixCell II LCM Microscope (Arcturus) with a minimal beam diameter of 7.5 μrm. Total cellular RNA was then extracted from lifted cells using a PicoPure™ RNA Isolation kit (Arcturus Engineering Inc). Purified RNA was analyzed both qualitatively and quantitatively using an Agilent 2100 Bioanalyser (Agilent Technologies, Foster City, Calif., USA). Standard 20 μl reverse transcription reactions were preformed (SuperScript II, Life Technologies). The quality of the recovered cDNA was measured using a microfluidic gel analyzer (Agilent Technologies). E-Cadherin gene expression from recovered cDNA was analyzed using RT-PCR using a 96 well TaqMan optical reaction plate format on an ABI Prism 7700 sequence detection system (Applied Biosystems, Foster City, Calif., USA). RNA was normalized to 18S for each reaction. Each 25 μl PCR reaction (including controls) contained TaqMan Universal master mix, gene-specific forward and reverse primers (Mobix, Hamilton), and probes for target and endogenous control genes (Applied Biosystems). Serial dilutions (1-5 fold) of standard samples were set up in separate wells in duplicate, for both 18S and E-cadherin gene targets. Standard and unknown samples were added in a volume of 5 μl. Thermal cycling parameters consisted of the following: 2 minutes at 50° C., 10 minutes at 95° C. followed by 40 cycles of 15 seconds at 95° C. and 1 minute at 60° C. The number of target gene copies was calculated from a standard curve generated in parallel with each batch of samples. A linear relationship was detected over at least five orders of magnitude. In all experiments, the correlation coefficient was between 0.997 and 0.986. […] All PCR for E-cadherin cDNA quantification were performed using standard cDNA dilution curves. Quantitative data were analyzed statistically using a student's t-test and expressed as ±standard deviation. […]

[2] = system: MMPs with gelatinolytic activity (MMP-2, MMP-9); experiment: Gelatin zymography of lens conditioned media; format: cell-based, rat; details: co-treated with TGFβ, 6 day time point, relative to TGFβ treated lenses
Procedure: An equal volume of each concentrate was electrophoresed on 10% SDS-polyacrylamide gels containing either 1 mg/ml gelatin or 2% beta-casein at a final concentration of 0.1% as the substrate. Following electrophoresis the gels were developed as described previously and stained in 0.5% coomassie brilliant blue for 1 hr followed by destaining with 10% iso-propanol. Sites of gelatinase or caseinase activity were detected as clear bands against a background of uniform staining, which was digitally photographed.
To examine the timing and level of induction of MMPs In subcapsular cataract formation zymography was performed on conditioned media of lenses from three different treatment groups (control, TGFβ, TGFβ plus GM6001 (25 μM)) and TGFβ plus MMPI-2/9 at the 6 day time point.

MMP-2 = experiment: Western blot of conditioned media for MMP-2; format: cell-based, rat; details: co-cultured with TGFβ
Procedure: (§1) To confirm the identity of the specific MMPs corresponding to the gelatinolytic bands in the zymograms and quantitate their levels over the 6 day time period, concentrated conditioned media from the treatment groups, control, TGFβ, TGFβ plus GM6001 (25 μM) and TGFβ plus MMPI-2/9, from three treatment times days 2, 4 and […], was subjected to western blot analysis using antibodies specific for both MMP-2 and MMP-9. Equal volumes of sample were electrophoresed on a 10% SDS-polyacrylamide gel. The resolved bands were electro-transferred onto a nitrocellulose membrane (Pall Corporation). Membranes were blocked with 5% skimmed milk powder in Tris-buffered saline (50 mM Tris base, NaCl pH 8.5) and 0.1% Tween-20 and then incubated overnight at 4° C. with a polyclonal antibody generated against MMP-9 (1:500; Chemicon International) or MMP-2 (1:500:Chemicon International) or E-adherin (1:1500; ED Transduction Laboratories).
Following this incubation, membranes were probed with an HRP-conjugated secondary antibody (1:7500;Amersham Biosciences) and ECL detection reagents (Amersham Biosciences). The western blots were scanned by a densitometer and analyzed by image quantification software (ImageJ, NIH, USA). […] Quantitative data were analyzed statistically using a student's t-test and expressed as ± standard deviation. […]

MMP-9 = experiment: Western blot of conditioned media for MMP-9 with densitometry; format: cell-based, rat; details: for MMP-9 protein in conditioned media (western blot, densitometry), FIG. 5B,C: co-treated with TGFβ 2 ng/ml, compared with TGFβ alone
Procedure: Equal volumes of sample were electrophoresed on a 10% SDS-polyacrylamide gel. The resolved bands were electro-transferred onto a nitrocellulose membrane (Pall Corporation). Membranes were blocked with 5% skimmed milk powder in Tris-buffered saline (50 mM Tris base, NaCl pH 8.5) and 0.1% Tween-20 and then incubated overnight at 4° C. with a polyclonal antibody generated against MMP-9 (1:500; Chemicon International) or MMP-2 (1:500:Chemicon International) or E-adherin (1:1500; ED Transduction Laboratories).
Following this incubation, membranes were probed with an HRP-conjugated secondary antibody (1:7500;Amersham Biosciences) and ECL detection reagents (Amersham Biosciences). The western blots were scanned by a densitometer and analyzed by image quantification software (ImageJ, NIH, USA). The relative density versus control ratio (RD/C) was estimated using Graph Pad Prism Program (GraphPad). Quantitative data were analyzed statistically using a student's t-test and expressed as ± standard deviation. A value of p<0.05 was considered significant.
The western blot data for MMP-9 from three separate experiments were analyzed by densitometry and the results are shown in FIG. 5C. Values are expressed as the Relative Density versus control ratio (RD/C)± standard deviation of 3 blots.

[3] = system: TGFβ-induced rat lens cataract; experiment: Optical analysis (BVD error) in ex-vivo TGFβ-induced rat lens cataract model
[4] = system: TGFβ-induced subcapsular cataract formation; experiment: Subcapsular plaque/opacity formation in cultured rat lenses (photography); format: cell-based; details: 6 days
Procedure: The previously established TGFβ-induced rat lens model was utilized for these studies. Briefly, lenses were obtained from adult male Wistar rats and cultured in 3.5 ml of serum free M199 medium supplemented with 50 IU/ml penicillin, 50 μg/ml streptomycin and 2.5 μg/ml fungizone (Amersham Biosciences) overnight. […] Some lenses were co-treated with TGFβ2 and the […], GM6001 (liomastat) (Chemicon International) at concentrations ranging from 10 to 25 μM or the MMP-2-9 inhibitor ((2R)-[(4-Biphenylylsulfonyl)amino]-N-hydroxyl-3-phenylpropionamide) (Chemicon) concentrations of either 10 and 25 μM. The GM6001 negative control (N-t-Butoxycarbonyl-L-leucyl-L-tryptophan Methylamide) (Calbiochem) (25 μM) was also employed. Lenses were then harvested at subsequent time-points of 2, 4 or 6 days and then photographed using a digital camera mounted to a dissecting scope. The lenses were then fixed for histology and immunofluorescence, or used for optical analysis. The conditioned media was also collected from each treatment group for zymography and western blot analysis.
The MMP inhibitor GM6001 was employed in the rat subcapsular cataract model in order to determine whether it could effectively suppress TGFβ-induced subcapsular cataract formation. To carry out these experiments, excised rat lenses were treated with exogenous TGFβ for a period of 6 days. […]

E-cadherin fragment = experiment: E-cadherin shedding, western blot of conditioned media; format: cell-based, rat; details: co-cultured with TGFβ, 6 day treatment
Procedure: as §1
To determine whether TGFβ treatment of the rat lens results in an induction of E-cadherin shedding and whether this can be modulated by MMPIs, previously concentrated conditioned media was obtained from the 6 day treatment groups outlined earlier, and subjected to western blot analyses using an antibody specific for extracellular domain of E-cadherin, and used in previous studies to detect the presence of soluble E-cadherin fragments. […]

[5] = TGFβ 2 ng/ml plus 25 μM test substance, 6 days

| Molecule | E-cadherin mRNA level in lens epithelium versus TGFβ alone, FIG. 6B (E-cadherin mRNA) | E-cadherin mRNA level in lens epithelium versus controls, FIG. 6B (E-cadherin mRNA) | Levels of gelatinolytic bands in conditioned media, FIG. 5A [2] | MMP-2 protein in conditioned media (western blot), FIG. 5B (MMP-2) | MMP-9 protein in conditioned media (western blot, densitometry), FIG. 5B,C (MMP-9) | BVD error versus control lenses, FIG. 3 [3, 5] | E-cadherin fragment in conditioned media, FIG. 6A (E-cadherin fragment) | also measured |
| --- | --- | --- | --- | --- | --- | --- | --- | --- |
| CNC(=O)[C@H](Cc1c[nH]c2ccccc12)NC(=O)[C@@H](CC(=O)NO)CC(C)C [GM6001] | significantly higher than those treated with TGFβ alone | significantly higher than that of controls | reduced levels of all gelationolytic bands | undetectable levels, similar to controls | significant reduction (**P<0.001); also recorded: significantly attenuated | not significantly different from the control lenses | Suppression in the levels of the E-adherin fragment | αSMA immunoreactivity in lens sections, FIG. 4 ([1]; 25 μM): no observable immunoreactivity to αSMA; BVD error versus control lenses, FIG. 3 ([3]; TGFβ 2 ng/ml plus 10 μM test substance, 6 days): significantly different from control lenses; BVD error versus control lenses, FIG. 3 ([3]; TGFβ 2 ng/ml plus 15 μM test substance, 6 days): significantly different from control lenses; BVD error versus control lenses, FIG. 3 ([3]; TGFβ 2 ng/ml plus 20 μM test substance, 6 days): not significantly different from the control lenses; Dosage effect on TGFβ-induced BVD error ([3]; TGFβ 2 ng/ml plus 10, 15, 20, 25 μM, 6 days): decrease in BVD error as the GM6001 concentration increases to 25 μM; BVD error (back vertex variability), FIG. 2 ([3]; day 6, lenses co-treated with TGF-β and GM6001, compared with TGF-β treated groups): both the TGF-β treated groups of lenses exhibited a significantly larger BVD error than the control group or the GM6001 co-treated lenses; Subcapsular plaques / opacities, FIG. 4 ([4]; co-cultured with TGFβ 2 ng/mL, 25 μM): remained devoid of opacities |
| CNC(=O)[C@H](Cc1c[nH]c2ccccc12)NC(=O)[C@H](CC(C)C)NC(=O)OC(C)(C)C [negative control for GM6001, N-t-Butoxycarbonyl-L-leucyl-L-tryptophan Methylamide] | – | – | – | – | – | significantly different from the controls | – | – |
| O=C(NO)[C@@H](Cc1ccccc1)NS(=O)(=O)c1ccc(-c2ccccc2)cc1 [MMPI-2/9, (2R)-[(4-Biphenylylsulfonyl)amino]-N-hydroxyl-3-phenylpropionamide] | significantly higher than those treated with TGFβ alone | significantly higher than that of controls | reduced levels of all gelationolytic bands | undetectable levels, similar to controls | significant attenuation of MMP-9 | – | undetectable | αSMA immunoreactivity in lens sections, FIG. 4 ([1]; inhibitor): no observable immunoreactivity to αSMA; Subcapsular plaques / opacities, FIG. 4 ([4]; co-cultured with TGF-β): remained devoid of opacities |
| B1 | – | – | – | – | – | – | – | Suppression of E-cadherin mRNA in plaque tissue versus normal lens epithelium (E-cadherin mRNA; TGFβ alone): ~4 fold; MMP-9 in conditioned media versus control, FIG. 5C (MMP-9; TGFβ 2 ng/ml alone): significant upregulation (*P<0.001); BVD error versus controls ([3]; TGFβ alone, 6 days): statistically greater than in controls |
